In paper PMC12640663 (Chemmedchem, 2025):
Entries after “also recorded” stand apart in the source; their conditions may differ.

What was measured:
[1] = system: insulin‐resistant HepG2 cells; experiment: Insulin‐resistant HepG2 model, western blotting of PTP1B and pAKT; format: cell-based; settings: 24 h, western blot
Procedure: (§1) Subsequently, we evaluated the same compounds in a HepG2 insulin‐resistant model.
Bar graphs represent the mean ± SEM of normalized values. The control levels were set at 1. T‐test significance *p < 0.05, when compared with control (DMSO). Statistical analyses were carried out using GraphPad Prism 8.0.
For the resistant insulin model using HepG2 cells, the following reagents were acquired from Sigma–Aldrich (Toluca, MEX, Mexico, and St. Louis, MO, USA): Insulin (I2643), Dulbecco's modified eagle's medium (DMEM) low glucose media (D5523), Trypsin‐EDTA solution (T4174), antibiotic‐antimycotic solution(A5955), dimethyl sulfoxide (DMSO‐D8418), sodium deoxycholate (D6750), triethylammonium bicarbonate buffer 1 M (TEAB‐T7408), glutaraldehyde 25% (G6275), acetic acid (695092), and crystal violet (C0775). The bicinchoninic acid protein quantitation kit (23225) and the Halt Cocktail with protease and phosphatase inhibitors (1861281) were acquired from ThermoFisherScientific. Fetal bovine serum (26140–079) was from Gibco. The chemiluminescent solution (170–5061) was acquired from Biorad. Rabbit anti‐PTP1B (5311S) and mouse anti‐β actin (3700S) primary antibodies were obtained from Cell Signaling, and secondary antibodies coupled with horseradish peroxidase were from Jackson laboratories (rabbit‐111−035, mouse‐115–035).
Treated cells with compounds were washed twice with 1 mL of PBS, and protein was extracted using 500 µL of a buffer solution containing 10% sodium deoxycholate in 10% TEAB, supplemented with a protease and phosphatase inhibitor cocktail. The extracts were heated to 80 °C for 5 min and disaggregated through passages with an insulin syringe. The cell extracts were centrifuged at 15,000 rpm for 15 min at 4 °C, and the supernatant was collected. Protein quantification was performed using the bicinchoninic acid assay method, and aliquots were prepared for western blotting. SDS/PAGE was conducted, and proteins were transferred onto a nitrocellulose membrane. The membrane was then blocked with 10% skimmed milk in TBST for 1 h and incubated overnight with primary antibodies (1:400 dilution). Secondary antibodies coupled to horseradish peroxidase were diluted 1:2000, and membranes were incubated for 1 h. The blots were documented using the ChemiDoc MP (Bio‐Rad), and densitometric analysis was performed using ImageJ (U.S. National Institutes of Health). Statistical analyses were carried out using GraphPad Prism 8.0.

HepG2 cells = experiment: Cell viability with crystal violet; format: cell-based; settings: 1 and 25 µM, 24 h
Procedure: as §1
A 96‐well plate was seeded with 3,000 cells per well and incubated for 24 h. Afterward, the cells were treated with test compounds at various concentrations for 24 h. After incubation, the media was removed, and 100 µL of 1% glutaraldehyde was added for 15 min. Afterward, the liquid was removed, and 50 µL of 0.5% crystal violet (dissolved in 25% methanol) was added for 30 min. The crystal violet staining solution was removed, and the plate was thoroughly washed with tap water. The precipitate was dissolved in a 10% acetic acid solution and mixed for 15 min. The absorbance was then measured at 590 nm using a plate reader (xMark Microplate Spectrophotometer—Bio‐Rad).
Figure S59. Cell viability assessment by crystal violet staining. HepG2 cell viability was evaluated
after treatment with the respective compounds at concentrations of 1 and 25 µM for 24 hours. Bar
graphs represent mean ± SEM.

CC1(C(=O)O)CCC2(C)CCC3(C)C(=CC(=O)C4C5(C)Cc6c([nH]c7ccc(C(F)(F)F)cc67)C(C)(C)C5CCC43C)C2C1 (centres unmarked) [Compound 3c]
AKT phosphorylation (pAKT) levels [1]: slight increase; also recorded: slightly increased pAKT levels
HepG2 cell viability (HepG2 cells): No significant differences; also recorded: did not compromise HepG2 cell viability
